In paper PMC8909834, “An Orally Bioavailable and Highly Efficacious Inhibitor of CDK9/FLT3 for the Treatment of Acute Myeloid Leukemia” (Cancers, 2022):

Legend:
GLK = target: T1, GLK (Homo sapiens, UniProt Q8IVH8); assay: Ki determination for kinases with greater than 90% inhibition (Reaction Biology); type: biochemical; conditions: calculated from IC50 using the Cheng-Prusoff equation
T1 construct: purchased Reaction Biology Corporation (contract assay)
Method: (§1) Kinase assay. The ADP Glo^TM kinase assay (Promega, Madison, WI, USA) was used to assess the inhibition by CDDD11-8 of CDKs 1, 2, 4, 6, 7, and 9, as well as the mutant isoforms of FLT3. The assays were performed in accord with the manufacturer’s protocol (Promega) as described previously. Briefly, serial three-fold dilutions of CDDD11-8 were prepared in 100% DMSO from a 2 mM stock solution, followed by 1:40 dilution into Milli-Q water. Subsequently, 1 µL of each sample was incubated with 4 µL of kinase mixture containing a particular CDK enzyme and its substrate, standard kinase buffer [3 mM MgCl2, 50 mM HEPES-NaOH pH 7.5, 3 mM MnCl2, 3 µM Na-orthovanadate, 1 mM dithiothreitol (DTT)], kinase dilution buffer (containing 0.25 mg/mL PEG20,000, 50 mM HEPES-NaOH pH 7.5, 1 mM DTT), and ATP at 37 °C for 30 to 40 min. The final reaction mixture contained 0.5% DMSO in all samples, and the applied kinase concentrations were 1, 1, 10, 40, 20, and 50 nM for CDK1, 2, 4, 6, 7, and 9, respectively. The reaction was stopped by adding ADP-Glo reagent and the mixture was incubated further in the dark at room temperature for 40 min. As a final step, kinase detection reagent was added to each mixture and incubated at room temperature for 30 to 60 min. Luminescence was read using an EnVision® multilabel plate reader (PerkinElmer, Beaconsfield, UK), and half-maximum inhibitory concentrations (IC50) were calculated using a non-linear regression model with a variable slope, plotting log (inhibitor concentration) vs. response using the following formula: Ar%=Bottom+Top−Bottom/1+Inhibitor Concentration/IC50^HillSlope where the relative activity Ar (%) is the signal relative to the controls, IC50 is the half maximum concentration, Hillslope is the steepness of the dose-response curve, Top and Bottom are plateaus reflecting the maximum and minimum in responses on the Y-axis (GraphPad Prism version 7, San Diego, CA, USA). Ki values were calculated from the IC50 using the Cheng−Prusoff equation [32]. Extensive specificity assessment was carried out by Reaction Biology Corporation (Malvern, PA, USA) with 369 kinases using 1 µM CDDD11-8 concentration in a Kinase Hotspot radiolabel assay (for experimental details, please see (Reaction Biology https://www.reactionbiology.com/). Subsequently, Ki values were determined for kinases with greater than 90% inhibition.

MINK = target: T2, MINK (Homo sapiens, UniProt Q8N4C8); assay: as above; type: biochemical; conditions: calculated from IC50 using the Cheng-Prusoff equation
T2 construct: purchased Reaction Biology Corporation (contract assay)
Method: as §1

MST1 = target: T3, MST1 (Homo sapiens, UniProt Q13043); assay: as above; type: biochemical; conditions: calculated from IC50 using the Cheng-Prusoff equation
T3 construct: purchased Reaction Biology Corporation (contract assay)
Method: as §1

NUAK1 = target: T4, NUAK1 (Homo sapiens, UniProt O60285); assay: as above; type: biochemical; conditions: calculated from IC50 using the Cheng-Prusoff equation
T4 construct: purchased Reaction Biology Corporation (contract assay)
Method: as §1

TNIK = target: T5, TNIK (Homo sapiens, UniProt Q9UKE5); assay: as above; type: biochemical; conditions: calculated from IC50 using the Cheng-Prusoff equation
T5 construct: purchased Reaction Biology Corporation (Kinase HotSpot)
Method: as §1

TRKC = target: T6, TRKC (Homo sapiens, UniProt Q16288); assay: as above; type: biochemical; conditions: calculated from IC50 using the Cheng-Prusoff equation
T6 construct: purchased Reaction Biology Corporation (contract assay)
Method: as §1

MOLM-13 cells = assay: Cell cycle analysis (PI, flow cytometry); type: cell-based; conditions: MOLM-13, 1 µM, 24 h
Method: (§2) Detection of apoptosis and cell cycle analysis. Detection of apoptosis and cell cycle analysis were performed as described previously. Cells (1 × 10^5 cells/mL) were seeded into a six-well plate (Corning) and incubated overnight at 37 °C, 5% CO2 prior to incubation with different concentrations of CDDD11-8 or control (0.1% final DMSO concentration) for 6, 24, or 72 h. For washout experiments, cells were incubated with compounds for 6 h, then washed three times with 1 × PBS interspersed with centrifugation at 300× g for 5 min to remove compound. After incubation at 37 °C under 5% CO2, cells were centrifuged at 300× g for 5 min to form a pellet, washed with PBS, and incubated with Annexin V/PI (Becton Dickenson, Franklin Lakes, NJ, USA) for 15 min in the dark. For cell cycle analysis, cells were fixed with 70% ethanol (v/v, 4 °C) and incubated in the dark with cell cycle staining solution (50 µg/mL PI, 0.1 mg/mL RNase A, 0.05% Triton X-100) for 1.5 h. Samples were analyzed using a CytoFlex flow cytometer (Beckman Coulter, Brea, CA, USA). Data were analyzed with CytExpert software version 2.1 (Beckman Coulter, Brea, CA, USA).

MV4-11 cells = assay: Cell cycle analysis (PI, flow cytometry); type: cell-based; conditions: 24 h
Method: as §2

T1 sequence (Q8IVH8 whole entry): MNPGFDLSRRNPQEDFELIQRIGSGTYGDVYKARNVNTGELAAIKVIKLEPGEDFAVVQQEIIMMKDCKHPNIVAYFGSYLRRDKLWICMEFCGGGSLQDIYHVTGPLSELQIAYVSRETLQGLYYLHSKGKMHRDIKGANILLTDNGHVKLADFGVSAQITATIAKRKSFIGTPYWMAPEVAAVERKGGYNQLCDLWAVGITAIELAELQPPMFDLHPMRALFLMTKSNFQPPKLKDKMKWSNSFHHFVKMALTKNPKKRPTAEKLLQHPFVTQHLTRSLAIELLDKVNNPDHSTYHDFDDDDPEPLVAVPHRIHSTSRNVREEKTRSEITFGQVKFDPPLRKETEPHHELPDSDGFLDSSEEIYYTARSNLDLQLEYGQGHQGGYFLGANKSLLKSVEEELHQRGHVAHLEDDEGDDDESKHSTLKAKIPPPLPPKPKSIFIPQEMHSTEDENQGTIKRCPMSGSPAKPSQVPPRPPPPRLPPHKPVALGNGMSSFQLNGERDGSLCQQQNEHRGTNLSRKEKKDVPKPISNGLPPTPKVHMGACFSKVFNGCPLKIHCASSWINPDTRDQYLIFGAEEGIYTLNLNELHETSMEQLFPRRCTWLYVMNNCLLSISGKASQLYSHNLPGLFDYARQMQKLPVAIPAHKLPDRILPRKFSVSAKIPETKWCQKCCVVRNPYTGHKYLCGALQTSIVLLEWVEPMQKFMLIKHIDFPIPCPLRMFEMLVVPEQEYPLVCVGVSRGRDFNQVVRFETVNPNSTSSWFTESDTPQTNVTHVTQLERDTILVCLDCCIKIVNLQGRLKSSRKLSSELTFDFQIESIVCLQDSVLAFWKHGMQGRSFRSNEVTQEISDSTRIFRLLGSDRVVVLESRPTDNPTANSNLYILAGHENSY
T5 sequence (Q9UKE5 whole entry): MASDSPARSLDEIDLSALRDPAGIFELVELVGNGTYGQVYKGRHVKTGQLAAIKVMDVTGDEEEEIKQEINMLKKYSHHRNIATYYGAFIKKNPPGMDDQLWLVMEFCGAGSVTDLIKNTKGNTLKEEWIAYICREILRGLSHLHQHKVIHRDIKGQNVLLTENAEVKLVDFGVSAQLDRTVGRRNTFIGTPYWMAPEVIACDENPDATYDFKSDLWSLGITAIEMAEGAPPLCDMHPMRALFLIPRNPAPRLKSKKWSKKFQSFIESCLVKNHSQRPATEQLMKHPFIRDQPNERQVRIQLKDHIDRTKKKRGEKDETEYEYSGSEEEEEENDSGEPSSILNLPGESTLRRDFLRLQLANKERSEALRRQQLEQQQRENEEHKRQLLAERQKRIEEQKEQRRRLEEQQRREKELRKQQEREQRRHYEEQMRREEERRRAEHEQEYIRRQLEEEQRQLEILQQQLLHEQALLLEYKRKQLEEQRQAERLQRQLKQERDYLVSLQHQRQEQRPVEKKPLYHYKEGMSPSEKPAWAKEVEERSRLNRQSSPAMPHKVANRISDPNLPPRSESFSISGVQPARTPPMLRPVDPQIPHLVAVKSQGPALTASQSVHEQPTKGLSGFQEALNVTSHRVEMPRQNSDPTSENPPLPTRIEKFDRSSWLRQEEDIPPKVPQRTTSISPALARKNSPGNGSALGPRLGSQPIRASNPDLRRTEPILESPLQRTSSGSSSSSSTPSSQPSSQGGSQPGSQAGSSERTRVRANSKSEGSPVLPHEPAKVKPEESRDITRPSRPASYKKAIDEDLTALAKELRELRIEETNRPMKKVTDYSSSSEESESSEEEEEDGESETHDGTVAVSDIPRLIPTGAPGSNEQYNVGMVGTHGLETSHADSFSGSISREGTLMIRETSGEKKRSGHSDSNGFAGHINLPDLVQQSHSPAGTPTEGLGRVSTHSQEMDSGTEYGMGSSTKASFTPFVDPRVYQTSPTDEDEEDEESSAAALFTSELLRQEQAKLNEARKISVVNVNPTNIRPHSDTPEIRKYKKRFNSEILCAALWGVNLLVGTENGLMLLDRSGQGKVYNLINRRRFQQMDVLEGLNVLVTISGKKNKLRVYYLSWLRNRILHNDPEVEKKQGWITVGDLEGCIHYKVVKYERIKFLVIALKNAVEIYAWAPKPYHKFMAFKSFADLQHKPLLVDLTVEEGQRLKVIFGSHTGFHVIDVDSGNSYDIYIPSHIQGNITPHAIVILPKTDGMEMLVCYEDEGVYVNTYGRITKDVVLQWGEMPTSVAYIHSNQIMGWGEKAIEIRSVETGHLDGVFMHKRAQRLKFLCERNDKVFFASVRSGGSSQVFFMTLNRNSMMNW
T3 sequence (Q13043 whole entry): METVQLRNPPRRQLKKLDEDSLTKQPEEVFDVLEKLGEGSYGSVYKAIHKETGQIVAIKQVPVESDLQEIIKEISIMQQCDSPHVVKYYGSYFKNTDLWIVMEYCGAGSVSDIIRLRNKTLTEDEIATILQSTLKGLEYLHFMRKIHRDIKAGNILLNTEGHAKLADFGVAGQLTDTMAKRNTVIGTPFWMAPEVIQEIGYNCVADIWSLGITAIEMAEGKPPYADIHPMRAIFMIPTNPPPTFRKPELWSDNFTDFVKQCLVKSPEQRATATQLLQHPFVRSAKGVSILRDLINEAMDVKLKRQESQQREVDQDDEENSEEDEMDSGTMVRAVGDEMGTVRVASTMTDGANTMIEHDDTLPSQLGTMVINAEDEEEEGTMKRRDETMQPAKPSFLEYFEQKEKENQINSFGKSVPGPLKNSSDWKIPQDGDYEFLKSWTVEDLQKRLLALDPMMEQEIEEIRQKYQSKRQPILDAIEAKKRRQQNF
T2 sequence (Q8N4C8 whole entry): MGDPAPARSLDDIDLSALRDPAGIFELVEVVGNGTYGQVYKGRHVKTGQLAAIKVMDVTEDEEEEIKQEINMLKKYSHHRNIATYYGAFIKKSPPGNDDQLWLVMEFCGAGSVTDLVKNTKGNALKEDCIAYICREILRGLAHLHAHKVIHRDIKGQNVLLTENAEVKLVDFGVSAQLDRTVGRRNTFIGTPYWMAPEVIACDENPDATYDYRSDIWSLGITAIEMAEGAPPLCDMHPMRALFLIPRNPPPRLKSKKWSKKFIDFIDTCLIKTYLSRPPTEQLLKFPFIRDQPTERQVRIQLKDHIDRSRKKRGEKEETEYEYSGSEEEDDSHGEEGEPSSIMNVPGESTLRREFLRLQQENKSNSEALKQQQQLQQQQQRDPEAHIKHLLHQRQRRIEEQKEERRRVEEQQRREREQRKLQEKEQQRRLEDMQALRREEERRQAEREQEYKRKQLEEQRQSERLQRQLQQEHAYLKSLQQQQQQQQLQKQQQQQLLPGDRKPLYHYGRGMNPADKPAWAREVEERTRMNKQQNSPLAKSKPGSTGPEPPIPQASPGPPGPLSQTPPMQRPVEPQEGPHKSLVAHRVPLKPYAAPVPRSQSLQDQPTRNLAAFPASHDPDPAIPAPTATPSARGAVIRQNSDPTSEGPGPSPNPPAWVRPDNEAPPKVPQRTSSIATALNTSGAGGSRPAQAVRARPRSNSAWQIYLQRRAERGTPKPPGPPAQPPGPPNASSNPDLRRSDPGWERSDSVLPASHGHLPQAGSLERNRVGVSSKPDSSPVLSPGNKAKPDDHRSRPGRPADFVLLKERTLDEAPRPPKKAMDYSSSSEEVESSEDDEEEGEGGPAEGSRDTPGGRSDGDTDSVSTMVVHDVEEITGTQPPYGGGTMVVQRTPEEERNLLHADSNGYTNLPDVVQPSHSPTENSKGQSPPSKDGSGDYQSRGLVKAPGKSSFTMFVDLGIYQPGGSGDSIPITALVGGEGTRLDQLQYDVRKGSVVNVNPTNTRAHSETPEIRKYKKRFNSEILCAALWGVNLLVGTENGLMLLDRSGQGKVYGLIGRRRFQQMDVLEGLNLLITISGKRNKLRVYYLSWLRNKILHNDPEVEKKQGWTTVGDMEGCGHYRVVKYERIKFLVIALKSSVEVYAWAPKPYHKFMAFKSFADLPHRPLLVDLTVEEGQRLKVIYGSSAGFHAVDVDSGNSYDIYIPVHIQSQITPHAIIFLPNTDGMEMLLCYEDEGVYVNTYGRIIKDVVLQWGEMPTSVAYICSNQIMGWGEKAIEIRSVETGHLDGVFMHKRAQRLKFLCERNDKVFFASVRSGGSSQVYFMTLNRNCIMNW
T6 sequence (Q16288 32-839): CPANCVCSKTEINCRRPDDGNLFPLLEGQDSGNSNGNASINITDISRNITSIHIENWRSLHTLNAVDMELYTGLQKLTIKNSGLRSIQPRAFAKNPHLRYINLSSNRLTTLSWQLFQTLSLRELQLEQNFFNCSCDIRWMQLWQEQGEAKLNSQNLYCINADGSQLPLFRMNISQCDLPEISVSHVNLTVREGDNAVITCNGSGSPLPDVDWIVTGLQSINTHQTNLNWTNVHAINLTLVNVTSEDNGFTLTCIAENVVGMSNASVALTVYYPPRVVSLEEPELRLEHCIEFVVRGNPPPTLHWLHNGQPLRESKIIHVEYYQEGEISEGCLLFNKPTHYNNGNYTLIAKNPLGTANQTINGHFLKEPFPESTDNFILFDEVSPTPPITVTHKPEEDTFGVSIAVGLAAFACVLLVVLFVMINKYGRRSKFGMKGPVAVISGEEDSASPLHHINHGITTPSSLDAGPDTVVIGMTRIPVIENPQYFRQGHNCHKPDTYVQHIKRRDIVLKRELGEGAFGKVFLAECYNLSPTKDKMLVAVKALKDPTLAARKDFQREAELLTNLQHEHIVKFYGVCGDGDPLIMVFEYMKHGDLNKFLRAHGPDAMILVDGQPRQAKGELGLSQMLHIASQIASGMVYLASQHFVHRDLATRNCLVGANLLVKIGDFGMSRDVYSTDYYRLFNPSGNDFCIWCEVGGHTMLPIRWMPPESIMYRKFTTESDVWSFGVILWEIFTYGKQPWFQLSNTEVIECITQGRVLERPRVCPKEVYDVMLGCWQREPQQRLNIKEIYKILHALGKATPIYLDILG

`Cc1cnc(N[C@H]2CC[C@H](N)CC2)nc1-c1cnc2ccc(-c3ccccc3)cn12` [CDDD11-8] showed a Ki (GLK) of 28 nM, a Ki (MINK) of 14 nM and a Ki (MST1) of 9 nM. The Ki (NUAK1) was 12 nM, the Ki (TNIK) was 3 nM and the Ki (TRKC) was 10 nM. For the same compound, the “increase of sub-G1 cell population” value (MOLM-13 cells) was “greater than 40 fold”, the “increase in the G1 population (increment)” value (MV4-11 cells; MV4-11, 0.3 µM) was 16% and the “increase of sub-G1 cell population” value (MV4-11 cells; MV4-11, 1 µM) was “greater than 40 fold”.
